“Also recorded” adds a separate entry of the source.
How the values were obtained:
[1] = tested on: castration-resistant prostate cancer (CRPC); assay: Phase II clinical trial of apalutamide 240 mg daily in CRPC; format: in vivo, human; details: for 12-week PSA declines of >50% or more from baseline (% of patients): preliminary
Excerpt: The primary objective was to assess antitumor activity and PSA kinetics as defined by the Prostate Cancer Clinical Trials Working Group (PCWG2) criteria. […] The median time to PSA progression was not reached for the TN cohort during the preliminary 12-week period, and was 16 weeks in the PA cohort.
The median time to PSA progression was not reached in this observed time period.

[2] = tested on: castration-resistant LNCaP/AR-Luc xenograft model; assay: Murine tumor (xenograft) models of CRPC; format: in vivo; details: for tumor cell proliferation and apoptosis in vivo: CRPC / mouse xenograft models of prostate cancer
[3] = tested on: T1, major CYP isoforms other than CYP2C8; assay: Cytochrome P450 inhibition: major isoforms; format: in vitro ADME; details: human; the other major isoforms (other than CYP2C8)
T1 construct: IC50; other: the other major isoforms (other than CYP2C8)

in vivo = details: dog
Excerpt: Single-dose and repeat-dose toxicology studies up to 13 weeks of dosing have been conducted in male Sprague Dawley (SD) rats and male Beagle dogs (repeat-dose studies only).

CYP2C8 = molecular target: T2, CYP2C8 (Homo sapiens, UniProt P10632); assay: Contribution of CYP2C8 in the metabolism of apalutamide; format: in vivo; details: estimated
T2 construct: from tissue; host or cells: human subjects, in vivo (clinical pharmacology)
T2 sequence (P10632 1-490): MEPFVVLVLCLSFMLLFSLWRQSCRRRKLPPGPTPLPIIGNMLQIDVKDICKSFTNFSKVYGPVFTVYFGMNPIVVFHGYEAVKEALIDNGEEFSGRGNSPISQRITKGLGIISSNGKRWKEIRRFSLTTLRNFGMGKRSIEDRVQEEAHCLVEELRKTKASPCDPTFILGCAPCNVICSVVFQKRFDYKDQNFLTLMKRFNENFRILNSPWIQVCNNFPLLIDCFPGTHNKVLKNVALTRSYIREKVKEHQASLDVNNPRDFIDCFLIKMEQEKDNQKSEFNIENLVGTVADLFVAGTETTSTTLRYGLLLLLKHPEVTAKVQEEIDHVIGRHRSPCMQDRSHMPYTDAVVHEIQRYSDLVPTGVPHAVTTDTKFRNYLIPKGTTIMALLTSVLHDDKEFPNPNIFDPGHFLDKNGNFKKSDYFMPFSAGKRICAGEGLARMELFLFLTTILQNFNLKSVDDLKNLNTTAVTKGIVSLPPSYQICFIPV

CYP3A4 = molecular target: T3, CYP3A4 (Homo sapiens, UniProt P08684); assay: Contribution of CYP3A4 in the metabolism of apalutamide; format: in vivo; details: estimated
T3 construct: from tissue; host or cells: human subjects, in vivo (clinical pharmacology)

[4] = Physicochemical description (ionization, solubility)
Excerpt: The Chemical name is (4-[7-(6-Cyano-5-trifluoromethylpyridin-3-yl)-8-oxo-6-thioxo-5,7-diazaspiro[3.4]oct-5-yl]-2-fluoro-N-methylbenzamide). Apalutamide is a white to slightly yellow powder.

[5] = Bacterial reverse mutation (Ames) assay
[6] = In vitro chromosome aberration test; format: cell-based
human CYP2B6 and CYP3A4 = details: hepatocytes
LNCaP/AR cells = details: literature; cited from earlier work
[7] = tested on: castration-resistant LNCaP/AR-Luc xenograft model; details: non-castrate hormone-sensitive and bicalutamide-resistant models (Clegg et al.); cited from earlier work
Plasma protein binding = details: plasma
CYP1A2 and CYP2D6 = assay: In vitro effect on CYP1A2 and CYP2D6; details: therapeutically relevant concentrations
[8] = molecular target: T4, organic anion transporter 1 (OAT1) (Homo sapiens, UniProt Q4U2R8); assay: In vitro transporter inhibition: OAT1
T4 sequence (Q4U2R8 1-563): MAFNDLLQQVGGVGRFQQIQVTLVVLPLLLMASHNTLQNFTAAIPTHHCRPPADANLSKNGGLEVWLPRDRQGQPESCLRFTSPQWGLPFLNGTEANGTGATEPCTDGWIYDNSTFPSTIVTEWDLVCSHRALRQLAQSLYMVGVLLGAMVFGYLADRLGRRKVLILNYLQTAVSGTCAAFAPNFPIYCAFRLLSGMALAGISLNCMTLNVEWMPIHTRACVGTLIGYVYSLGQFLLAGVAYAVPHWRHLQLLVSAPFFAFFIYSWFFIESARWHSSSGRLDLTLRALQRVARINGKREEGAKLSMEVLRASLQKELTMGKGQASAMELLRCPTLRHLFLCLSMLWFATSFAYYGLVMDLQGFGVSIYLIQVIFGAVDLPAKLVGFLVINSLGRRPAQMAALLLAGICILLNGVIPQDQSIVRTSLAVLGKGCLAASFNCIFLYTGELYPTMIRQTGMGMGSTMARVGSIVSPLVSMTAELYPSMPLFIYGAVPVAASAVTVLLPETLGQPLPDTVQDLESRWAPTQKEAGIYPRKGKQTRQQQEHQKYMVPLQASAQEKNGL

CYP2B6 and CYP2C8 = assay: In vitro CYP inhibition: CYP2B6 and CYP2C8
P-gp = P-gp (Homo sapiens, UniProt P08183); assay: In vitro transporter substrate assessment: P-gp
[9] = Clinical pharmacokinetics (population PK analysis); details: for dose dependence of exposure (Cmax and AUC): repeat once-daily dosing, 30 to 480 mg

T3 sequence (P08684 whole entry): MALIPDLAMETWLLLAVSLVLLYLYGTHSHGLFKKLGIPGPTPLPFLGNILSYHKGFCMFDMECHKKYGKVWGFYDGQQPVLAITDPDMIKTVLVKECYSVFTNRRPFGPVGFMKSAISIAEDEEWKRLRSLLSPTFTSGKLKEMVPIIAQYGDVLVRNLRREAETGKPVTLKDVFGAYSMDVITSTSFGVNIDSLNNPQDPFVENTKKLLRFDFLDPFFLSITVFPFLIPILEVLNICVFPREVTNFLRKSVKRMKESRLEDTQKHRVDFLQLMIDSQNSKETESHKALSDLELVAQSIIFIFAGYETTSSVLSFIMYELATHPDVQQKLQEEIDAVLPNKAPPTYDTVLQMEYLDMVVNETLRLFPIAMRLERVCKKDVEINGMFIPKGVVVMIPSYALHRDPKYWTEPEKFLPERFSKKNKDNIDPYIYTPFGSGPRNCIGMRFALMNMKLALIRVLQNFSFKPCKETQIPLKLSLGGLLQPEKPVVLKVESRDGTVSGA
P-gp, sequence (P08183 whole entry): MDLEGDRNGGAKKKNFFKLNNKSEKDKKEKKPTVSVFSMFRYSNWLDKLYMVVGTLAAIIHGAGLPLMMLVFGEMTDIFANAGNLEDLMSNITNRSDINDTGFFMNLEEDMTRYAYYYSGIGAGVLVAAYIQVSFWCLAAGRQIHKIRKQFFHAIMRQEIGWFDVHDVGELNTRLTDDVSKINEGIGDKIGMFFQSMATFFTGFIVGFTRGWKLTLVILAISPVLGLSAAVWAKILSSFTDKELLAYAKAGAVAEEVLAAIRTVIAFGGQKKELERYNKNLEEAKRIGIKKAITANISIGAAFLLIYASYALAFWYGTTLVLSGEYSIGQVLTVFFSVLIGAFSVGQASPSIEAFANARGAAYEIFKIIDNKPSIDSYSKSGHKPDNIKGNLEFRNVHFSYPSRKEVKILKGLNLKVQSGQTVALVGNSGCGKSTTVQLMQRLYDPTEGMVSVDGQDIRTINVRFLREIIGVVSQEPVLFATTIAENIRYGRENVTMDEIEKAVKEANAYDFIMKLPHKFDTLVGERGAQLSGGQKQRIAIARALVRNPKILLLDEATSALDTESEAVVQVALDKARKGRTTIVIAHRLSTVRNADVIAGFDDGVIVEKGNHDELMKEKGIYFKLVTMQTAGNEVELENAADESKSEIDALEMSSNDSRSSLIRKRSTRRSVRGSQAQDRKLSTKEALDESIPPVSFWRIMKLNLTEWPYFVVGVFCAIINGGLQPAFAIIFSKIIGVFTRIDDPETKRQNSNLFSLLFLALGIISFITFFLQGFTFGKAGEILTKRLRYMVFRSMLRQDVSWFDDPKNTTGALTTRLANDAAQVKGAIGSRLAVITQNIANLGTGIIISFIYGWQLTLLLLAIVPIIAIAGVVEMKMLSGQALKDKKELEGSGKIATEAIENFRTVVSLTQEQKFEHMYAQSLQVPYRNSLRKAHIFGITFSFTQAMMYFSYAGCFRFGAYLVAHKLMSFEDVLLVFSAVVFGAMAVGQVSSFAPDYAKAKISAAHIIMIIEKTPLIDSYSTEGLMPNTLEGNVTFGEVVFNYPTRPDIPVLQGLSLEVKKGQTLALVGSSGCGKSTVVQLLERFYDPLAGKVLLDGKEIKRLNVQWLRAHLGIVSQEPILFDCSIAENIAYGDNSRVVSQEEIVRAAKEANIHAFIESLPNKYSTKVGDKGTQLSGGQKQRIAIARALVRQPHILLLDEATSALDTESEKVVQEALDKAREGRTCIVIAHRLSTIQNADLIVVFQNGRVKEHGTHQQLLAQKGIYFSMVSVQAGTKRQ

SMILES: CNC(=O)c1ccc(N2C(=S)N(c3cnc(C#N)c(C(F)(F)F)c3)C(=O)C23CCC3)cc1F [apalutamide, 4-[7-(6-cyano-5-trifluoromethylpyridin-3-yl)-8-oxo-6-thioxo-5,7-diazaspiro[3.4]oct-5-yl]-2-fluoro-N-methylbenzamide]
- median time to PSA progression ([1]; PA cohort): 16 weeks
- 12-week PSA declines of >50% or more from baseline (% of patients) ([1]; PA cohort (progressed after abiraterone acetate plus prednisone), 240 mg oral daily): 29%
- 12-week PSA declines of >50% or more from baseline (% of patients) ([1]; TN cohort (treatment-naive metastatic CRPC), 240 mg oral daily): 88%
- median time to PSA progression ([1]; TN cohort, preliminary 12-week period): not reached
- objective response rate (by RECIST) ([1]; TN patients with measurable disease at baseline): 63%
- patients with >50% decline in PSA as compared to baseline ([1]; non-metastatic CRPC, 240 mg oral daily, 12 weeks): 91%
- patients with >50% decline in PSA ([1]; non-metastatic CRPC, 24 weeks): 91%
- patients with >90% decline in PSA ([1]; non-metastatic CRPC, 24 weeks): 55%
- median time to PSA progression ([1]; non-metastatic CRPC, observed time period): not reached
- tumor cell proliferation and apoptosis in vivo [2]: reduce proliferation of CRPC cells as well as increase apoptosis and necrosis
- tumor cell proliferation and apoptosis in vivo ([2]; listed as Apalutamide): decreased tumor cell proliferation and increased apoptosis leading to decreased tumor volume
- tumor growth inhibition and tumor regression ([2]; murine tumor models of CRPC): dose-dependent tumor growth inhibition and tumor regression that were superior to bicalutamide
- IC50 [3]: > 25 µM
- increases in cholesterol compared to controls (in vivo): up to 50%
- NOAEL at 13 weeks (in vivo; male, Beagle): 5 mg/kg/day
- NOAEL at 28 days (in vivo; male, Beagle): 10 mg/kg/day
- dose at which seizures necessitating humane euthanasia occurred (in vivo; male, Beagle): ≥ 25 mg/kg/day
- dose with reproductive system findings (in vivo; male, Beagle): > 2.5 mg/kg/day
- AUC(0-t) (in vivo; male, Beagle, 10 mg/kg/day): 290 µg·h/mL
- Cmax (in vivo; male, Beagle, 10 mg/kg/day): 13200 ng/mL
- contribution of CYP2C8 in the metabolism (CYP2C8; at steady-state): 40%
- contribution of CYP2C8 in the metabolism (CYP2C8; following single dose): 58%
- contribution of CYP3A4 in the metabolism (CYP3A4; at steady-state): 37%
- contribution of CYP3A4 in the metabolism (CYP3A4; following single dose): 13%
- solubility ([4]; aqueous media over a wide range of pH values): practically insoluble
- ionization ([4]; relevant physiological pH condition): not ionizable
- mutations in the bacterial reverse mutation (Ames) assay [5]: did not induce mutations
- genotoxicity, in vitro chromosome aberration [6]: not genotoxic
- CYP3A4 and CYP2B6 induction (human CYP2B6 and CYP3A4): moderate to strong CYP3A4 and CYP2B6 inducers
- agonist activity in the context of AR overexpression (LNCaP/AR cells): lacks the partial agonist activity
- tumor regression in human prostate cancer xenograft models [7]: partial or complete tumor regression
- fraction unbound (Plasma protein binding): 0.04
- effect on CYP1A2 and CYP2D6 (CYP1A2 and CYP2D6): do not affect
- inhibition of OAT1 [8]: No in vitro inhibition; also recorded: do not inhibit
- inhibition of CYP2B6 and CYP2C8 (CYP2B6 and CYP2C8): moderate inhibitors
- substrate for P-gp (P-gp): substrates for P-gp
- time to steady state ([9]; 240 mg once daily): 4 weeks
- CL/F ([9]; after single dosing): 1.3 L/h
- CL/F ([9]; at steady-state after once-daily dosing): 2.0 L/h
- changes in Cmax and AUC with food ([9]; high-fat meal vs fasting, healthy subjects): no clinically relevant changes
- Tmax ([9]; human, plasma, po): 2 h
- bioavailability ([9]; human, plasma, po): ~100%
- differences in pharmacokinetics in specific populations ([9]; mild or moderate renal impairment, mild or moderate hepatic impairment, age 18 to 94 years, race): No clinically significant differences
- dose dependence of exposure (Cmax and AUC) [9]: dose-proportional
- dose dependence of exposure (Cmax and AUC) ([9]; listed as Apalutamide): increased proportionally

From US11160796B2, “Anti-androgens for the treatment of non-metastatic castration-resistant prostate cancer” (priority 2017, dated 2021)
